# Experimental data published in publication PMC10459042, “Synthesis of 1,2,3-Triazole-Containing Methoxylated Cinnamides and Their Antileishmanial Activity against the Leishmania braziliensis Species” (Pharmaceuticals, 2023).
# Experiments:
# [1] = tested on: Leishmania braziliensis promastigotes; experiment: Depolarization of mitochondrial membrane potential (ΔΨm), JC-1; type: cell-based; settings: FCCP 1.3 µg/mL (5.0 µmol/L) for 20 min; non-treated parasites 7.2
# Description: Leishmania braziliensis promastigotes (1 × 10^7 cells/mL) were treated with compound 28 (at a concentration corresponding to one IC50 value) for 48 h at 24 °C. The parasites (3 × 10^6 cells/mL) were then labeled with JC-1 (5 µg/mL, Sigma-Aldrich, St. Louis, MO, USA) for 30 min at 37 °C. After washing twice with PBS to remove the non-internalized dye, the samples were added to a black 96-well plate, and the ΔΨm was analyzed in a spectrofluorometer (FLx800, BioTek Instruments, Winooski, VT, USA) with an excitation filter of 485 nm and emission wavelength of 528 nm and […] to measure the green and red fluorescence, respectively. The ΔΨm was determined using the ratio between the red/green fluorescence intensity. Parasites that were exposed to 1.3 µg/mL (5.0 µmol/L) of FCCP (Sigma-Aldrich, St. Louis, MO, USA) for 20 min were used as a control. […]
# Figure 4 ΔΨm and ROS production in Leishmania after exposure to Compound 28. […] (A) Depolarization of ΔΨm was evaluated using the JC-1 fluorescent probe. Samples were analyzed fluorometrically, and the results are expressed as the ratio of red/green fluorescence. […] (B) ROS production was evaluated using the H2DCFDA probe. The fluorescence intensity was measured by fluorimetry, and the results are expressed as the fold increase in the ROS level compared with the non-treated control. […]
# [2] = tested on: L. braziliensis promastigotes; experiment: ROS production in promastigotes (H2DCFDA); type: cell-based, Leishmania braziliensis; settings: H2O2-incubated promastigotes
# Description: After treatment with Compound 28 (at a concentration corresponding to one IC50 value) for 48 h at 24 °C, L. braziliensis promastigotes were washed with PBS, and the parasite concentration was adjusted to 3 × 10^6 cells per well. H2DCFDA (Sigma-Aldrich, St. Louis, MO, USA) was then added and incubated for 30 min in the dark, and samples were read in a fluorometric microplate reader (FLx800, BioTek Instruments, Winooski, VT, USA) with excitation and emission wavelengths of 485 and 528 nm, respectively. Parasites that were untreated or treated with Compound 28 and not labeled with the fluorescent probe were used as the blank.
# Figure 4 ΔΨm and ROS production in Leishmania after exposure to Compound 28. Leishmania braziliensis promastigotes were not exposed (negative control) or exposed to Compound 28 (at a concentration corresponding to the IC50 value) for 48 h. (A) Depolarization of ΔΨm was evaluated using the JC-1 fluorescent probe. Samples were analyzed fluorometrically, and the results are expressed as the ratio of red/green fluorescence. FCCP ([…]) was used as a positive control. (B) ROS production was evaluated using the H2DCFDA probe. The fluorescence intensity was measured by fluorimetry, and the results are expressed as the fold increase in the ROS level compared with the non-treated control. H2O2-treated parasites were used as a positive control. […]
# [3] = tested on: L. braziliensis-infected macrophages; experiment: ROS levels in Leishmania-infected macrophages (H2DCFDA); type: cell-based, Leishmania braziliensis; settings: H2O2 0.02 µg/mL (0.5 µmol/L)
# Description: Macrophages (1 × 10^6 cells/mL) were incubated in 96-well culture plates (Nunc, Nunclon, Roskilde, Denmark) and infected with L. braziliensis promastigotes (at a ratio of 10 parasites per cell). The infected macrophages were either left untreated or treated with Compound 28 (at a concentration of 5.0 µg/mL) for 48 h at 37 °C in 5% CO2. The cells were washed with PBS and incubated with 20 μmol/L H2DCFDA (Molecular Probes, Eugene, Oregon, USA) for 30 min in the dark. The fluorescence intensity was measured using a spectrofluorometer (FLx800; BioTek Instruments, Winooski, VT, USA) at 485 nm excitation and 528 nm emission. As a positive control, the infected macrophages were incubated with H2O2 at a concentration of 0.02 µg/mL (0.5 µmol/L). Parasites that were untreated with Compound 28 and not labeled with the fluorescent probe were used as the sample blank.
# Figure 3 Production of ROS in L. braziliensis-infected macrophages treated with Compound 28. Leishmania braziliensis-infected macrophages (1 × 10^5 cells) were incubated with Compound 28 (5.0 µg/mL) for 48 h at 37 °C in a 5% CO2 environment. Subsequently, 2′,7′-dichlorodihydrofluorescein diacetate (H2DCFDA, 9.7 μg/mL) was added for 30 min under dark conditions. The fluorescence levels were measured in a spectrofluorometer at 485/528 nm. H2O2 (0.5 µmol/L) was used as a positive control. […]
smiles,measurement,setting,value
"N#CC(C#N)=NNc1ccc(OC(F)(F)F)cc1 [FCCP, carbonyl cyanide-p-trifluoromethoxyphenylhydrazone, reference compound]","ΔΨm, JC-1 ratio of red/green fluorescence (positive control)",[1],3.4
"OO [Compound H2O2, H2O2, reference compound]",Fold increase in ROS levels compared with untreated parasites (positive control),[2],1.6 fold
same,Increase in ROS production in infected cells (positive control),[3],41.4%
